Here are results for 15 compounds from PMC9916685, “Discovery of Small Molecule COX-1 and Akt Inhibitors as Anti-NSCLC Agents Endowed with Anti-Inflammatory Action” (International Journal of Molecular Sciences, 2023).

Series [1] deals with T1, COX-1 (Ovis aries, UniProt P05979).
T1 construct: purchased Cayman
T1 sequence (P05979 25-600): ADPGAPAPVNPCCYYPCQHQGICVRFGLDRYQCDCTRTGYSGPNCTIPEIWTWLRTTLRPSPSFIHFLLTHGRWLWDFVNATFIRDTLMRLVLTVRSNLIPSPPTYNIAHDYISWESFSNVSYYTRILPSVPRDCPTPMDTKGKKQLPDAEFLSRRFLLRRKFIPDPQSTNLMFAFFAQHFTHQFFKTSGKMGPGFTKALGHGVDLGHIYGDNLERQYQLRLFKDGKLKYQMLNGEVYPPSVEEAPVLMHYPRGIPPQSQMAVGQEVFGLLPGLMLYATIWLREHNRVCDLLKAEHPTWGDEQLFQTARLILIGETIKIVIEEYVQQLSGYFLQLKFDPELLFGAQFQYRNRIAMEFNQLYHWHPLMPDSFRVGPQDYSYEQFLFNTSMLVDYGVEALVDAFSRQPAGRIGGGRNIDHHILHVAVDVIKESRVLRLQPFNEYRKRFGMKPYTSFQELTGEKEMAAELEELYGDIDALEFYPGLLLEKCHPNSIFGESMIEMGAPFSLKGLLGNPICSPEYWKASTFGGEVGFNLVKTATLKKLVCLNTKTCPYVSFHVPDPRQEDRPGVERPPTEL
The experiment in a line: COX (ovine) colorimetric inhibitor screening assay, COX-1. The class given is biochemical. The settings on record: for IC50: ovine COX-1, colorimetric, triplicate, mean ± SD; for SI (IC50 for COX-1/IC50 for COX-2): selectivity index. The method, then:
(§1) COX (ovine) Colorimetric Inhibitor Screening Assay (Cayman, Ann Arbor, MI, USA) was conducted to detect the peroxidase component of COX-1 and COX-2 according to the manufacturer’s instructions. The assay was performed in triplicate. Half maximal inhibitory concentration (IC50) data (µM) were expressed as mean ± SD.

For series [2], the target named is T2, COX-2 (Ovis aries, UniProt P79208).
T2 construct: purchased Cayman
T2 sequence (P79208 17-603): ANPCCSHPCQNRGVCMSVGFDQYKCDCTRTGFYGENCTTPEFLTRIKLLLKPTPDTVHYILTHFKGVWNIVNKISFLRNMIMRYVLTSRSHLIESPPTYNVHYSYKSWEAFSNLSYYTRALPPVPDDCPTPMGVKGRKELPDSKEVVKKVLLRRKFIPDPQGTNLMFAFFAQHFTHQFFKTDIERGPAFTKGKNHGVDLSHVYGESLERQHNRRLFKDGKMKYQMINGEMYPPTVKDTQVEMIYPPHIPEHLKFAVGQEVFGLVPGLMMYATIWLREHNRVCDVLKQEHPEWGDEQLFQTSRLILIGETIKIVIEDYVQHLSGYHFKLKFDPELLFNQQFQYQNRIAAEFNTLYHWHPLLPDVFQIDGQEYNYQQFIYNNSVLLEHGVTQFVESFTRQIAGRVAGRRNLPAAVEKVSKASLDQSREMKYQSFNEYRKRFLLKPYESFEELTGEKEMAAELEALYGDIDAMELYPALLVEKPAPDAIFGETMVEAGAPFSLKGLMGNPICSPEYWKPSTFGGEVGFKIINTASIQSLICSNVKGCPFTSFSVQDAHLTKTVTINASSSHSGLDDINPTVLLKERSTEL
As to the kind of experiment: COX (ovine) colorimetric inhibitor screening assay, COX-2. The class given is biochemical. The settings on record: ovine COX-2, colorimetric, triplicate, mean ± SD. On the procedure: as §1

The test system of series [3] is L929 mouse fibroblast (normal) cells. As to the kind of experiment: MTT cytotoxicity assay, L929 normal cells. It counts as cell-based. As to conditions: MTT, L929 mouse fibroblast cells, mean ± SD. On the procedure:
A549 human lung adenocarcinoma and L929 mouse fibroblast cell lines were obtained from American Type Culture Collection (ATCC) (Manassas, VA, USA). Both cell lines were cultured, and drug treatments were carried out as previously reported.
MTT assay was conducted as previously explained in the literature with small modifications. Cisplatin was used as a positive control. The assay was performed in triplicate. IC50 data (µM) were expressed as mean ± SD.

Molecules are shown by their SMILES.

The IC50 is the concentration that gives 50% inhibition. A higher IC50 goes with weaker potency. The term melting point denotes the temperature, or range, at which the solid turns liquid. The compound `O=C(Cc1c[nH]c2ccccc12)NN=Cc1ccc(N2CCCCC2)cc1` [Compound 3c, 2-(1H-Indol-3-yl)-N′-[4-(piperidin-1-yl)benzylidene]acetohydrazide] had a melting point of 265 to 266 °C. Besides, the IC50 in series [1] is > 100 µM. The IC50 in series [2] was > 100 µM. The compound also had an IC50 in series [3] of 21.3 ± 0.58 µM.

On to `O=C(Cc1c[nH]c2ccccc12)NNC(=S)Nc1ccc2c(c1)OCO2` [Compound 4f, 4-(1,3-Benzodioxol-5-yl)-1-[2-(1H-indol-3-yl)acetyl]thiosemicarbazide], for which the melting point fell in the range of 168 to 170 °C. Further, in series [1], the IC50 is > 100 µM and the “SI (IC50 for COX-1/IC50 for COX-2)” value was >1.94. The same compound came in with an IC50 in series [2] of 51.5 ± 0.71 µM. In series [3], this compound displayed an IC50 of 14 ± 5.29 µM.

For `O=C(Cc1c[nH]c2ccccc12)NNC(=S)Nc1ccc(S(=O)(=O)N2CCCCC2)cc1` [Compound 4d, 4-[4-(Piperidin-1-ylsulfonyl)phenyl]-1-[2-(1H-indol-3-yl)acetyl]thiosemicarbazide], the melting point is 182 to 184 °C. Further, in series [1], the IC50 was > 100 µM and the “SI (IC50 for COX-1/IC50 for COX-2)” value is listed as >1.69. In addition, half-maximal inhibition in series [2] (IC50) required 59 ± 8.48 µM. In series [3], the IC50 turned out to be 45.7 ± 6.03 µM.

Regarding `O=C(Cc1c[nH]c2ccccc12)NN=Cc1ccc(N2CCCC2)cc1` [Compound 3a, 2-(1H-Indol-3-yl)-N′-[4-(pyrrolidin-1-yl)benzylidene]acetohydrazide], the melting point was 302 to 303 °C. For the same compound, in series [1], the IC50 came out at 10.3 ± 0.35 µM and the “SI (IC50 for COX-1/IC50 for COX-2)” value is 0.83. This compound also had an IC50 in series [2] of 12.5 ± 0.71 µM. It took 17.3 ± 2.08 µM to reach half-maximal inhibition in series [3] (IC50).

For the compound `O=C(Cc1c[nH]c2ccccc12)NNC(=S)Nc1ccc(C(F)(F)F)cc1` [Compound 4b, 4-(4-Trifluoromethylphenyl)-1-[2-(1H-indol-3-yl)acetyl]thiosemicarbazide], the melting point was in the range of 184 to 186 °C. Also, in series [1], the IC50 is > 100 µM and the “SI (IC50 for COX-1/IC50 for COX-2)” value was >1.63. In series [2], inhibition was half-maximal at 61.5 ± 0.71 µM (IC50). In addition, in series [3], the IC50 was found to be 22.7 ± 2.08 µM.

Consider `O=C(Cc1c[nH]c2ccccc12)NN=Cc1ccc(OCCN2CCOCC2)cc1` [Compound 3h, 2-(1H-Indol-3-yl)-N′-[4-(2-morpholinoethoxy)benzylidene]acetohydrazide], for which the melting point lay in the range of 132 to 135 °C. Further, in series [1], the IC50 is 38.5 ± 1.5 µM and the “SI (IC50 for COX-1/IC50 for COX-2)” value came to 0.76. Besides, the concentration for half-maximal inhibition (IC50) in series [2] amounted to 50.5 ± 0.7 µM. For the same compound, in series [3], the IC50 was < 3.9 µM.

For the compound `COc1ccc2[nH]cc(C=NNC(=O)Cc3c[nH]c4ccccc34)c2c1` [Compound 3j, 2-(1H-Indol-3-yl)-N′-[(5-methoxy-1H-indol-3-yl)methylene]acetohydrazide], the IC50 in series [1] was > 100 µM; in series [2] it was 44.5 ± 6.36 µM; in series [3], 43 ± 1.73 µM. Also, in series [1], the “SI (IC50 for COX-1/IC50 for COX-2)” value was >2.25.

`CN1CCN(c2ccc(C=NNC(=O)Cc3c[nH]c4ccccc34)cc2)CC1` [Compound 3d, 2-(1H-Indol-3-yl)-N′-[4-(4-methylpiperazin-1-yl)benzylidene]acetohydrazide] showed a melting point of 218 to 220 °C. Besides, in series [1], half-maximal inhibition (IC50) was put at 78.5 ± 8.5 µM and the “SI (IC50 for COX-1/IC50 for COX-2)” value was <0.79. The IC50 in series [2] was > 100 µM. Also, the IC50 in series [3] is 20 ± 1.73 µM.

Consider `CC(=NNC(=O)Cc1c[nH]c2ccccc12)c1ccc(N2CCOCC2)cc1` [Compound 3g, 2-(1H-Indol-3-yl)-N′-[1-(4-morpholinophenyl)ethylidene]acetohydrazide], for which the melting point lay in the range of 198 to 199 °C. Further, in series [1], the IC50 stood at 51 ± 1 µM and the “SI (IC50 for COX-1/IC50 for COX-2)” value stood at 0.97. The IC50 in series [2] was 52.5 ± 0.71 µM. In addition, in series [3], the IC50 is < 3.9 µM.

`CS(=O)(=O)c1ccc(C=NNC(=O)Cc2c[nH]c3ccccc23)cc1` [Compound 3e, 2-(1H-Indol-3-yl)-N′-(4-methylsulfonylbenzylidene)acetohydrazide] had a melting point of 264 to 265 °C. Also, in series [1], the IC50 worked out at 83.8 ± 6.25 µM and the “SI (IC50 for COX-1/IC50 for COX-2)” value was 2.39. This compound also returned an IC50 in series [2] of 35 ± 9.9 µM. Further, in series [3], 85 ± 17.3 µM corresponded to half-maximal inhibition (IC50).

For `CC(=NNC(=O)Cc1c[nH]c2ccccc12)c1ccc(S(C)(=O)=O)cc1` [Compound 3f, 2-(1H-Indol-3-yl)-N′-[1-(4-methylsulfonylphenyl)ethylidene]acetohydrazide], the melting point was in the range of 204 to 205 °C. In series [1], the IC50 is 93.7 ± 6.25 µM and the “SI (IC50 for COX-1/IC50 for COX-2)” value is listed as 1.84. Also, it took 51 ± 12.7 µM to reach half-maximal inhibition in series [2] (IC50). For the same compound, the IC50 in series [3] is < 3.9 µM.

For `Cn1cc(C=NNC(=O)Cc2c[nH]c3ccccc23)c2ccccc21` [Compound 3i, 2-(1H-Indol-3-yl)-N′-[(1-methyl-1H-indol-3-yl)methylene]acetohydrazide], the melting point was 221 to 224 °C. In series [1], the IC50 is 31.2 ± 1.25 µM and the “SI (IC50 for COX-1/IC50 for COX-2)” value is reported as <0.31. Also, the IC50 in series [2] was > 100 µM. In addition, in series [3], the IC50 came to 42.3 ± 0.58 µM.

As to `O=C(Cc1c[nH]c2ccccc12)NNC(=S)Nc1ccc(-n2cccn2)cc1` [Compound 4e, 4-[4-(1H-Pyrazol-1-yl)phenyl]-1-[2-(1H-indol-3-yl)acetyl]thiosemicarbazide], the melting point was in the range of 196 to 198 °C. Also, in series [1], the concentration for half-maximal inhibition (IC50) is > 100 µM and the “SI (IC50 for COX-1/IC50 for COX-2)” value is >3.17. Further, in series [2], the half-inhibitory concentration (IC50) is 31.5 ± 2.12 µM. The compound also registered an IC50 in series [3] of 62.3 ± 7.51 µM.

In turn, `O=C(Cc1c[nH]c2ccccc12)NNC(=S)Nc1ccc(OCc2ccccc2)cc1` [Compound 4g, 4-[4-(Benzyloxy)phenyl]-1-[2-(1H-indol-3-yl)acetyl]thiosemicarbazide] showed a melting point of 198 to 200 °C. In series [1], the IC50 was > 100 µM and the “SI (IC50 for COX-1/IC50 for COX-2)” value was >1.68. Besides, inhibition in series [2] was half-maximal at 59.5 ± 2.12 µM (IC50). Moreover, in series [3], the IC50 came out at 14 ± 3.46 µM.

On to `N#Cc1ccc(NC(=S)NNC(=O)Cc2c[nH]c3ccccc23)cc1` [Compound 4c, 4-(4-Cyanophenyl)-1-[2-(1H-indol-3-yl)acetyl]thiosemicarbazide], for which the melting point is 180 to 182 °C. In series [1], the IC50 is > 100 µM and the “SI (IC50 for COX-1/IC50 for COX-2)” value was >1.77. This compound showed an IC50 in series [2] of 56.5 ± 4.49 µM. The compound also had an IC50 in series [3] of 26.3 ± 3.51 µM.
